Data from US8415344B2, “Method of treating depression” (Brookhaven Science Associates, LLC, priority 2009, dated 2013).

Columns and labels:
[1] = test system: rats exhibiting learned helplessness (cLH rat line); experiment: Learned helplessness testing (lever-press escape paradigm) of cLH rats pre- and post-treatment; assay type: in vivo; conditions: oral diazoxide dissolved in NaOH, 10, 30 or 60 mg per day, three days
Procedure: At the age of 9 weeks, male rats are tested for learned helplessness. Testing consists of an escape paradigm, were 0.8 mA, 60 sec foot-shocks can be interrupted with a lever press. A trial not terminated within 20 seconds is considered a failure, and 10 or more failed trials out of 15 trials are treated as “helpless” phenotype. cNLH animals are exposed to a total of 20 unpredictable, unescapable foot-shocks (0.8 mA, 60 sec) 24 hours prior to testing. Five rats from the cLH rat line described in Example I are provided with orally administered diazoxide dissolved in NaOH over a period of three days. Two animals received 60 mg per day two received 30 mg, and one received 10 mg. Three rats in the control group received no treatment.

[2] = test system: astrocyte glutamate transporters; conditions: Sun et al.; cited from earlier work
[3] = Rothstein et al.; Lipski et al.; cited from earlier work

CC1=NS(=O)(=O)c2cc(Cl)ccc2N1 [diazoxide]
number of lever presses post-treatment relative to pre-treatment [1]: substantial increase in the number of lever presses | stimulating the uptake of glutamate by astrocyte glutamate transporters [2]: shown to be effective

CC(N/C(=N\C#N)Nc1ccncc1)C(C)(C)C (centres unmarked) [pinacidil]
stimulating the uptake of glutamate by astrocyte glutamate transporters [2]: shown to be effective

CC(C)NC(C)(C)C(C)C [iptakalim]
stimulating the uptake of glutamate by astrocyte glutamate transporters [2]: shown to be effective

CO/N=C(\C(=O)N[C@@H]1C(=O)N2C(C(=O)O)=C(CSc3nc(=O)c(=O)[nH]n3C)CS[C@H]12)c1csc(N)n1 [Ceftriaxone]
effectiveness in studies of neuroprotection [3]: particularly effective
